As usually defined, the Ki is the dissociation constant of the complex between target and ligand, obtained from inhibition or displacement.

In the first assay the target is T1, Proteasome Macropain subunit MB1 (Homo sapiens) (UniProt P28074).
T1 sequence (whole entry): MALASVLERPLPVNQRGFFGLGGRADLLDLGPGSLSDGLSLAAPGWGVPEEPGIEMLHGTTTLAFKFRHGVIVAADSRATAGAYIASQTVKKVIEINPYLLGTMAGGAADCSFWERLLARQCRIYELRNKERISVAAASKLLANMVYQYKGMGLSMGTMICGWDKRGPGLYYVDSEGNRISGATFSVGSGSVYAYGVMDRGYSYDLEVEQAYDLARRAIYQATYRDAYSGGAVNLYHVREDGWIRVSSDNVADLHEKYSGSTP
In turn, `COC(=O)[C@@H](NC(=O)N[C@H](C(=O)N[C@H]1CCCCNC(=O)/C=C/[C@H](Cc2cc(F)cc(F)c2)NC1=O)C(C)C)C(C)C` showed a Kin of 0.0005 s⁻¹.

`COC(=O)[C@@H](NC(=O)N[C@H](C(=O)N[C@H]1CCCCNC(=O)/C=C/[C@H](Cc2cccc(F)c2)NC1=O)C(C)C)C(C)C` gave a Kin of 0.000486 s⁻¹.

The target of the next assay is T2, Proteasome Macropain subunit MB1 (Homo sapiens, UniProt P28074).
T2 sequence (P28074 whole entry): T1 sequence (whole entry)
The assay is described as follows: Inhibition of human 20S proteasome beta5 subunit using Suc-LLVY-AMC as substrate by fluorescence assay.
As for `COC(=O)[C@@H](NC(=O)N[C@H](C(=O)N[C@H]1CCCCNC(=O)/C=C/[C@H](Cc2cc(F)cc(F)c2)NC1=O)C(C)C)C(C)C`, the affinity, expressed as Ki, was 952 nM.

As to `COC(=O)[C@@H](NC(=O)N[C@H](C(=O)N[C@H]1CCCCNC(=O)/C=C/[C@H](Cc2ccc(Cl)cc2)NC1=O)C(C)C)C(C)C`, the Ki stood at 1240 nM.

`COC(=O)[C@@H](NC(=O)N[C@H](C(=O)N[C@H]1CCCCNC(=O)/C=C/[C@H](CC(C)C)NC1=O)C(C)C)C(C)C` registered a Ki of 3230 nM.

In the case of `COC(=O)[C@@H](NC(=O)N[C@H](C(=O)N[C@H]1CCCCNC(=O)/C=C/[C@H](Cc2ccc(C)cc2)NC1=O)C(C)C)C(C)C`, the affinity corresponds to a Ki of 1140 nM.

The molecule `COC(=O)[C@@H](NC(=O)N[C@H](C(=O)N[C@H]1CCCCNC(=O)/C=C/[C@H](Cc2cccc(Cl)c2)NC1=O)C(C)C)C(C)C` yielded a Ki of 963 nM.

`COC(=O)[C@@H](NC(=O)N[C@H](C(=O)N[C@H]1CCCCNC(=O)/C=C/[C@H](Cc2cccc(F)c2)NC1=O)C(C)C)C(C)C` showed a Ki of 592 nM. Against the preceding molecule, the Ki is about 1.6-fold lower.

The molecule `COC(=O)[C@@H](NC(=O)N[C@H](C(=O)N[C@H]1CCCCNC(=O)/C=C/[C@H](Cc2cccc(C)c2)NC1=O)C(C)C)C(C)C` registered a Ki of 2350 nM.

In turn, `COC(=O)[C@@H](NC(=O)N[C@H](C(=O)N[C@H]1CCCCNC(=O)/C=C/[C@H](Cc2ccccc2)NC1=O)C(C)C)C(C)C` yielded a Ki of 743 nM.

The molecule `COC(=O)[C@@H](NC(=O)N[C@H](C(=O)N[C@H]1CCCCNC(=O)/C=C/[C@H](Cc2ccccc2Cl)NC1=O)C(C)C)C(C)C` displayed an inhibition constant Ki of 2110 nM.

Molecule `COC(=O)[C@@H](NC(=O)N[C@H](C(=O)N[C@H]1CCCCNC(=O)/C=C/[C@H](Cc2cccc(C(F)(F)F)c2)NC1=O)C(C)C)C(C)C` had a Ki of 7580 nM.

`COC(=O)[C@@H](NC(=O)N[C@H](C(=O)N[C@H]1CCCCNC(=O)/C=C/[C@H](Cc2ccccc2F)NC1=O)C(C)C)C(C)C` registered a Ki of 906 nM.

The values above are taken from ChEMBL document CHEMBL3612027, “Substrate-guided optimization of the syringolins yields potent proteasome inhibitors with activity against leukemia cell lines” (Bioorg Med Chem, 2015).
